How the values were obtained:
[1] = positive samples among 80 subjects (JWH-018 in 9, JWH-073 in 6); cited from earlier work
[2] = next specimen collected 18 h later (after the 6 h sample); cited from earlier work
[3] = Blood concentrations in mice after inhalation of "Magic Gold" smoke; format: in vivo, C57BL6 mice
Post-preparative = format: physicochemical; details: extracted samples stored in the auto-sampler 72 h at room temperature
[4] = Brain concentrations in mice after inhalation of "Magic Gold" smoke; format: in vivo, C57BL6 mice

## CCCCCn1cc(C(=O)c2cccc3ccccc23)c2ccccc21 [JWH-018, Naphthalen-1-yl-(1-pentylindol-3-yl)methanone]
[1]
  Serum concentration (mean): 1.84 ng/mL
[2]
  Serum detection: undetectable

## CCCCn1cc(C(=O)c2cccc3ccccc23)c2ccccc21 [JWH-073, Naphthalen-1-yl-(1-butylindol-3-yl)methanone]
[3]; 20 min after exposure
  JWH-073 blood concentration higher than JWH-018 (mean increase): 53%
Post-preparative
  Degradation (auto-sampler stability): approximately 20%
[1]
  Serum concentration (mean): 0.42 ng/mL
[4]; 20 min after exposure
  JWH-073 brain concentration higher than JWH-018 (mean increase): 84%
[4]; 20 h post exposure, five mice
  Brain concentration (range): not detected

## CCCCCn1cc(C(=O)c2ccc(Cl)c3ccccc23)c2ccccc21 [JWH-398, 4-chloronaphthalen-1-yl-(1-penty-lindolin-3-yl)methanone]
[3]; 20 min and 20 h after exposure
  Detection in blood samples: not detected
[4]; 20 min and 20 h after exposure
  Detection in brain samples: not detected

Source: PMC3677765 (Forensic science international, 2012)
